Values of other authors in patent US20050154016A1, “Preventives for hiv infection” (priority 2002, published 2005).

Tested on: R5 HIV-1
Settings: reported in non-patent document 18

## Cc1ccc(-c2ccc3c(c2)C=C(C(=O)Nc2ccc(C[N+](C)(C)C4CCOCC4)cc2)CCC3)cc1.[Cl-] [TAK-779]
  inhibitory effect against HIV-1 infection caused by R5 HIV-1: exhibits an inhibitory effect
